These results are taken from patent US9974832B2, “Therapeutic effects of bryostatins, bryologs, and other related substances on head trauma-induced memory impairment and brain injury” (Cognitive Research Enterprises, Inc., priority 2007, dated 2018).

The subject of series [1] is NCI 60 cell line screen. To be noted: cited from earlier work.
Series [2] has as its target PKC. To be noted: read-out: affinity for PKC, A-ring bryologs; cited from earlier work.
For series [3], the target named is T1, PKCϵ (Homo sapiens, UniProt Q02156).
T1 sequence (Q02156 1-737): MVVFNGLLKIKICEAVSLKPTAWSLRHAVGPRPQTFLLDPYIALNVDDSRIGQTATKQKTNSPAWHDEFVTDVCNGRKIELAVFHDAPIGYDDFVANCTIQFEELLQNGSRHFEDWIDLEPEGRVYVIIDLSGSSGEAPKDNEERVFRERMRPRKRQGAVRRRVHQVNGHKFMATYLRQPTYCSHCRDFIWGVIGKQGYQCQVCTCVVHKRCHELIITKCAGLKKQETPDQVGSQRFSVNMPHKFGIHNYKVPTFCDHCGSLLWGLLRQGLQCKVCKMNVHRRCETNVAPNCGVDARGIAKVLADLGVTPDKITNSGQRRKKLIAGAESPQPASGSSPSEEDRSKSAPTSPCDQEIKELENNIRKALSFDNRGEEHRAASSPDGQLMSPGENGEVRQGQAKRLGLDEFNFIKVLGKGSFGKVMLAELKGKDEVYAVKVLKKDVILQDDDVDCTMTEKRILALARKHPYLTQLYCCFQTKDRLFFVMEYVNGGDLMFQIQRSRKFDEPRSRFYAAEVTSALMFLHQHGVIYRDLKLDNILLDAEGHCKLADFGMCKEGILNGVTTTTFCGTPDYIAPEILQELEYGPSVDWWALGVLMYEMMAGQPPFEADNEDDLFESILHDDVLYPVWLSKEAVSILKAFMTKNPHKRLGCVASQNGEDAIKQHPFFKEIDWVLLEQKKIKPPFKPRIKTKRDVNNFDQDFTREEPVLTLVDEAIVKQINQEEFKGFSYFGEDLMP
The following applies: cited from earlier work.

The conditions of series [4]: (−)-enantiomer; cited from earlier work.
Series [5] concerns squamous cell carcinoma and melanoma. The following applies: used topically; cited from earlier work.
The conditions of series [6]: compared with phorbol; cited from earlier work.
Series [7] deals with murine leukemias and solid tumors. To be noted: cited from earlier work.
The test system of series [8] is cyclin dependent kinase 2 (Cdk2). The following applies: at 5 ng/ml; cited from earlier work.
Series [9] deals with PKC. The following applies: K562 cells; cited from earlier work.
The subject of series [10] is head trauma-induced brain injury and memory impairment. The series is described as follows: minimal traumatic brain injury in mice, Morris Water Maze. It counts as in vivo. To be noted: treatment started one hour after head trauma. As to the method: Minimal traumatic brain injury (TBI) was produced in mice by a concussive event using a 30 g mass. One hour post trauma, the mice received 20 or 30 μg bryostatin per kg doses by intraperitoneal injection. The injections were repeated twice weekly for a total of 5 treatments. The effects on learning and memory of bryostatin treatment in treated animals was tested in the Morris Water Maze.
The platform was removed and the animals were tested for how long they searched the correct quadrant versus the incorrect quadrants. In the passive avoidance procedure the animal remembers the distinctive environment in which a mild electric shock is delivered and avoids it on a second occasion.
Minimal traumatic brain injury (TBI) was produced in mice by a concussive event using a 30 g mass. One hour post trauma, the mice received 30 μg bryostatin per kg doses by intraperitoneal injection. The injections were repeated twice weekly for a total of 5 treatments. The escape latencies in a Morris Water Maze of mice treated with bryostatin after minimal TBI were compared to animals with minimal TBI, control animals receiving no TBI or bryostatin, and animals receiving bryostatin only.
Minimal traumatic brain injury (TBI) was produced in mice by a concussive event using a 30 g mass. One hour post trauma, the mice received 20 μg bryostatin per kg doses by intraperitoneal injection. […]

For series [11], the system named is tumor promotion. To be noted: cited from earlier work.
The conditions of series [12]: in vivo; cited from earlier work.

On to `CC1=CC[C@H](C)C(C)(C)[C@@H]1/C=C/C(C)=C/CC[C@@]1(CO)[C@H](CCCO)/C(=C(/C)C=O)CC[C@]1(C)O` [Iripallidal], for which the “GI50 (concentration required to inhibit growth by 50%)” value in series [1] was “micromolar to nanomolar range”. Take `CCCCCCCC(=O)OC1C(=CC(=O)OC)CC2CC(CO)OC(=O)CC(O)CCOC(C(C)(C)C)CC3CCOC(C=CC(C)(C)C1(O)O2)O3` (stereo not drawn) [bryolog 3]: the Ki in series [2] is 6.5 nM.

On to `CCCCCC1CC1CC1CC1CCCCCCCC(=O)O` (stereo not drawn) [DCP-LA, 2-[(2-pentylcyclopropyl)methyl]cyclopropaneoctanoic acid], for which the “concentration of maximal effect” value in series [3] was 100 nM. For the compound `CCCCCCCCc1ccc2c3c(c[nH]c13)C[C@@H](CO)NC(=O)[C@H](C(C)C)N2C` [Octylindolactam V], the metabolic stability result in series [4] is reported as “greater metabolic stability”.

With `C/C=C(/C)C(=O)O[C@H]1C(C)=C[C@]23C(=O)[C@@H](C=C(CO)[C@@H](O)[C@]12O)[C@H]1[C@@H](C[C@H]3C)C1(C)C` [Ingenol-3-angelate], in series [5], the antitumor activity entry is listed as “possesses antitumor activity”. In the case of Ingenol, the toxicity entry in [6] is “much less toxicity”. Take `CCCCCCCC(=O)OC1C(=CC(=O)OC)CC2CC(CO)OC(=O)CC(O)CCOC(CCCc3ccc(Br)cc3)CC3CCOC(C=CC(C)(C)C1(O)O2)O3` (stereo not drawn) [bryolog 5]: the Ki in series [2] was 1.9 nM. On to `C=C(C)[C@]12C[C@@H](COC(=O)c3ccccc3)[C@@]34OC5(O[C@@H]1[C@@H]3C1O[C@]1(CO)[C@@H](O)[C@@]1(O)[C@H]4[C@@H](C(C)CCCCCC[C@@H]5O)C(C)[C@@H]1OC(=O)c1ccccc1)O2` (stereo partly drawn) [Gnidimacrin], for which the “concentrations with potent antitumor activity” value in series [7] is 0.1 to 1 nM. The “inhibition of Cdk2” value in [8] is given as 100%. The “concentration at which it acts as a PKC activator” value in [9] was “≈ 3 nM”. For the compound `CCCC=CC=CC(=O)OC1C(=CC(=O)OC)CC2CC(C(C)O)OC(=O)CC(O)CC3CC(OC(C)=O)C(C)(C)C(O)(CC4CC(=CC(=O)OC)CC(C=CC(C)(C)C1(O)O2)O4)O3` (stereo not drawn) [Bryostatin 1, bryostatin-1], the “therapeutic effect on brain injury and memory impairment induced with head trauma” value in [10] is “therapeutic value against brain injury and memory impairment”. Also, the tumor promotion activity result in series [11] was “devoid of tumor promotion activity”. Moreover, in series [12], the “main adverse reaction in humans” value is reported as “myalgia” and the “tolerability of doses in humans” value is on record as “well tolerated in humans”. On to `CCCCCCCC(=O)OC1C(=CC(=O)OC)CC2CC(CO)OC(=O)CC(O)CCOC(c3ccccc3)CC3CCOC(C=CC(C)(C)C1(O)O2)O3` (stereo not drawn) [bryolog 4], for which the Ki in series [2] was 2.3 nM.
